We go through four molecules from PMC8703317, “2-(Piperidin-4-yl)acetamides as Potent Inhibitors of Soluble Epoxide Hydrolase with Anti-Inflammatory Activity” (Pharmaceuticals, 2021).

On the set-up of series [1]: method as in PMID 33945278. The following applies: 60 min incubation with human microsomes, NADPH, 37 °C; cited from earlier work.
Details of series [2]: method as in PMID 33945278. The following applies: 60 min incubation with mouse microsomes, NADPH, 37 °C; cited from earlier work.
Series [3] is described as follows: microsomal stability, human microsomes. The settings on record: pooled human microsomes, pH 7.4; 60 min incubation with human microsomes, NADPH, 37 °C. It counts as in vitro ADME. How it is done: (§1) The human and murine pooled microsomes employed were purchased from Tebu-Xenotech (Barcelona, Spain). The compound was incubated at 37 °C with the microsomes in a 50 mM phosphate buffer (pH = 7.4) containing 3 mM MgCl2, 1 mM NADP, 10 mM glucose-6-phosphate and 1 U/mL glucose-6-phosphate-dehydrogenase. Samples (75 µL) were taken from each well at 0, 10, 20, 40 and 60 min and transferred to a plate containing 4 °C 75 µL acetonitrile and 30 µL of 0.5% formic acid in water were added for improving the chromatographic conditions. The plate was centrifuged (46000 g, 30 min) and supernatants were taken and analyzed in a UPLC-MS/MS (Xevo-TQD, Waters) by employing a BEH C18 column and an isocratic gradient of 0.1% formic acid in water: 0.1% formic acid acetonitrile (60:40). The metabolic stability of the compounds was calculated from the logarithm of the remaining compounds at each of the time points studied.

The target in series [4] is T1, murine sEH (Mus musculus, UniProt P34914).
T1 construct: made in house; host or cells: baculovirus expression system (insect cells implied)
T1 sequence (P34914 1-554): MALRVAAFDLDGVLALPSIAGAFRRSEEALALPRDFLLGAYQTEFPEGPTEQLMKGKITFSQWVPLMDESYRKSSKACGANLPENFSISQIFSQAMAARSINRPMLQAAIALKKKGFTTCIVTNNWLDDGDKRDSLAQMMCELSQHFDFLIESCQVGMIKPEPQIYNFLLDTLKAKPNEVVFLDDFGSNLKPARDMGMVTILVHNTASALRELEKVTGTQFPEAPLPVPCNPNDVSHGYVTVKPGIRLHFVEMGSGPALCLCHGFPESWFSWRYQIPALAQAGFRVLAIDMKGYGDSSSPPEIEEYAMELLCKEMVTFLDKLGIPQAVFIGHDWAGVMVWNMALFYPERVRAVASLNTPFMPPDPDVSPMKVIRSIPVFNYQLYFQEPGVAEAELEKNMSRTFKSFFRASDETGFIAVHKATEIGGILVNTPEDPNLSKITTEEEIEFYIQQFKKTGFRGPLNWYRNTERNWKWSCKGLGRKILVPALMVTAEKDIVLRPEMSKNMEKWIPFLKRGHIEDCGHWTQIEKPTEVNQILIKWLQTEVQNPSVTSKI
The experiment in a line: fluorescent-based sEH inhibition assay, recombinant mouse sEH. The series is classed as biochemical. The settings on record: baculovirus expressed recombinant mouse sEH, average of three replicates. On the procedure:
The potency of all the new compounds as inhibitors of the human and murine sEH was tested using a previously reported sensitive fluorescent-based assay using baculovirus expressed recombinant human and mouse sEH [28].

In series [5] the test system is microglial BV2 cells activated with LPS. The experiment in a line: nitric oxide generation (nitrite, Griess) in LPS-activated BV2 microglial cells. It counts as cell-based. The settings on record: LPS 0.1 or 1 μg/mL, 24 h. How it is done:
Inflammatory changes were determined by the measure of nitric oxide generation, as the endpoint of iNOS activation, in microglial BV2 cells. BV2 cells (HyperCLDB, Banca Biologica e Cell Factory, ICLC ATL 03001) were grown in RPMI 1640 medium, supplemented with L-glutamine 2 mM, gentamycin 50 µM and 10% FBS. For experiments, cells were seeded in 96-well plates at 2 × 10^5 cells/mL, 100 µL/well. […] After 1 h of incubation, the cells were treated with the pro-inflammatory chemical LPS (0.1 μg/mL or 1 μg/mL; strain E. coli […], Sigma-Aldrich, L-2654, batch #120M4028) and further incubated for 24 h. TPPU at 100 µM was also assayed as a reference anti-inflammatory compound. DMSO 0.1% was used as vehicle. Cells were maintained at 37 °C in a humidified incubator with 5% CO2 throughout the procedures. Nitric oxide released to the culture medium was measured by the colorimetric Griess reaction that detects nitrite (NO2^–), a stable reaction product of nitric oxide and molecular oxygen. Briefly, 50 µL of conditioned medium were incubated with 50 µL of Griess reagent for 10 min at room temperature. Optical density was measured at 540 nm. Nitrite concentration was determined from a sodium nitrite standard curve. Results were normalized by cell protein content in the well and expressed as a percentage of the average maximal values given by the pro-inflammatory agent (LPS 1 µg/mL). Each treatment was performed in 3–5 wells and the whole experiment was repeated 3–4 times in cultures of different cell passage. Data were analyzed by ANOVA followed by Tukey’s multiple comparisons test.
(The Griess reaction detects nitrite, a stable product of nitric oxide.)

A short description of series [6]: microsomal stability, mouse microsomes. The series is classed as in vitro ADME. The following applies: pooled murine microsomes, pH 7.4; 60 min incubation with mouse microsomes, NADPH, 37 °C. On the procedure: as §1
Series [7] has as its system SH-SY5Y neuroblastoma cells. The series can be described thus: cytotoxicity by propidium iodide staining in SH-SY5Y cells. The series is classed as cell-based. The settings on record: 24 h incubation, up to 100 µM (highest concentration tested), vehicle DMSO 0.1%, n = 10–12. How it is done: Cytotoxicity was evaluated in the human neuroblastoma SH-SY5Y cell line (ATCC Number: CRL-2266). Cells were cultured in minimum essential medium/HAM’s-F12 (1:1, v/v) medium, supplemented with non-essential amino acids, L-glutamine 1 mM, gentamycin 50 µM and 10% heat inactivated fetal bovine serum (FBS). For experiments, the cells were seeded at 3 × 10^5 cells/mL (100 µL/well) in 96-well plates. […] DMSO 0.1% was used as vehicle. Treated cultures were returned to the incubator for a 24 h test exposure. One hour before termination, cell death was measured by PI staining. Briefly, PI (Molecular Probes) at the final concentration of 7.5 µg/mL was added to the cells and incubated for 1 h. PI enters into cells with damaged membrane and binds to DNA yielding intense red fluorescence. Fluorescence was measured in a SAFAS FLX-Xenius microplate reader (Monaco) at 530 nm excitation and 645 nm emission. Percentage of cell death for a given fluorescence value (Ft) was calculated according to the values given by Triton X100 killed cells (Fmax; 100% cell death) and vehicle treated cells (Fmin; 0% cell death) [% = ((Ft-Fmin)/(Fmax-Fmin)) × 100]. Each treatment was assayed in 3–4 wells per experiment and the experiment was repeated 3 times in cultures of different cell passages. Data were analyzed by ANOVA.

With `O=C(NC12CC3CC(F)(CC(C1)c1ccccc13)C2)N[C@H]1CC[C@H](Oc2ccc(C(=O)O)cc2)CC1` [11b], the “Microsomal Stability Human % Remaining at 1 h” value in series [1] is given as 77%. The “Microsomal Stability Mouse % Remaining at 1 h” value in series [2] was 36%.

With `CC12CC3CC(NC(=O)N[C@H]4CC[C@H](Oc5ccc(C(=O)O)cc5)CC4)(CC(C1)c1ccccc13)C2` [11a], the “Microsomal Stability Human % Remaining at 1 h” value in series [1] is given as 70%. Besides, the “Microsomal Stability Mouse % Remaining at 1 h” value in series [2] was 10%.

As a reminder, the share remaining is the share of the starting amount still present when the sample was taken. Read a high share remaining as less turnover. What is called IC50 is the midpoint of a concentration-inhibition curve. Regarding `O=C(CC1CCN(c2ccc(C(=O)O)cc2)CC1)NC12CC3CC(F)(CC(C1)c1ccccc13)C2` [10c, 4-(4-(2-((9-Fluoro-5,6,8,9,10,11-hexahydro-7H-5,9:7,11-dimethanobenzo[9]annulen-7-yl)amino)-2-oxoethyl)piperidin-1-yl)benzoic Acid], the results for the amount remaining at 1 h in series [3] and in series [6] were 60% and 29%, respectively. Further, the IC50 in series [4] came out at 0.7 nM. The “nitric oxide generation (nitrite levels) in presence of LPS” value in series [5] (compound at 50 µM) and in series [5] (compound at 100 µM) was “indistinguishable from control levels” in each case. Also, the “cytotoxicity, percentage of cell death (PI staining)” value in series [7] is reported as “no cytotoxicity”.

As to `O=C(NC12CC3CC(Cl)(CC(C1)c1ccccc13)C2)N[C@H]1CC[C@H](Oc2ccc(C(=O)O)cc2)CC1` [11c], the “Microsomal Stability Human % Remaining at 1 h” value in series [1] is on record as 89%. In addition, the “Microsomal Stability Mouse % Remaining at 1 h” value in series [2] is recorded as 60%.
